In US12414952B2 (Merck Sharp & Dohme LLC, priority 2018, dated 2025):

Assays:
[1] = biological target: human A2b adenosine receptor (Homo sapiens (Human), UniProt P29275); experiment: A2b binding affinity, radioligand filtration binding assay; details: tritiated proprietary A2b antagonist, HEK293 membranes
Method: Measurement of A2b Binding Affinity
The reported affinity of the compounds of the invention for the human A2b adenosine receptor was determined experimentally using a radioligand filtration binding assay. This assay measures the amount of binding of a tritiated proprietary A2b receptor antagonist, in the presence and absence of a compound of the invention, to membranes made from HEK293 cells recombinantly expressing the human A2b adenosine receptor (Perkin Elmer, Cat. No. ES-013-C).
The filter plate was incubated for at least 1 h at 55° C. and allowed to dry. The bottom of the filter plate was then sealed with backing tape. […] The plates were then incubated for at least 20 min, and then the amount of radioactivity remaining in each well was determined using a TopCount® (Perkin Elmer) scintillation counter. After normalization to total and non-specific binding, the percent effect at each compound concentration was calculated. The plot of percent effect versus the log of compound concentration was analyzed electronically using a 4-parameter logistic fit based on the Levenberg-Marquardt algorithm to generate IC50 values.

[2] = biological target: human A2a adenosine receptor (Homo sapiens (Human), UniProt P29274); experiment: A2a binding affinity using radioligand binding, Method (A); details: Method (A): [3H]SCH58261 filtration binding
Text: The A2a receptor affinity binding assay measured the amount of binding of a tritiated ligand with high affinity for the A2a adenosine receptor to membranes made from HEK293 or CHO cells recombinantly expressing the human A2a adenosine receptor, in the presence of varying concentrations of a compound of the invention. The data were generated using either filtration binding or a homogenous scintillation proximity assay (SPA).
Method (A): Measurement of A2a Binding Affinity Using Radioligand Binding
148 μL (5 μg/mL) membranes (Perkin Elmer, Cat. No. RBHA2aM400UA) and 2 μL compounds of the invention to be tested (test compound) were transferred to individual wells of a 96-well polypropylene assay plate and incubated for 15 to 30 min at room temperature. [^3H] SCH58261 ((7-(2-phenylethyl)-5-amino-2-(2-furyl)-pyrazolo-[4,3-e]-1,2,4-triazolo[1,5-c]pyrimidine)) was diluted in assay buffer (50 mM Tris pH 7.4, 10 mM MgCl2, 0.005% Tween20) to a concentration of 4 nM and 50 μL transferred to each well of the assay plate. […] The assay plate was incubated at room temperature for 60 min with agitation. […] Filtering was achieved by aspirating the contents of the assay plate for 5 sec, then washing and aspirating the contents three times with ice-cooled wash buffer (50 mM Tris-HCl pH 7.4, 150 mM NaCl) and allowing the vacuum manifold to dry the plate for […]. The filter plate was incubated for at least 1 h at 55° C. and allowed to dry. The bottom of the filter plate was sealed with backing tape. […] The plate was incubated for at least 20 min, and then the amount of radioactivity remaining in each well was determined using a TopCount® (Perkin Elmer) scintillation counter. After normalization to total and non-specific binding, the percent effect at each compound concentration was calculated. The plot of percent effect versus the log of compound concentration was analyzed electronically using a 4-parameter logistic fit based on the Levenberg-Marquardt algorithm to generate IC50 values.

Chain of human A2b adenosine receptor (P29275 whole entry): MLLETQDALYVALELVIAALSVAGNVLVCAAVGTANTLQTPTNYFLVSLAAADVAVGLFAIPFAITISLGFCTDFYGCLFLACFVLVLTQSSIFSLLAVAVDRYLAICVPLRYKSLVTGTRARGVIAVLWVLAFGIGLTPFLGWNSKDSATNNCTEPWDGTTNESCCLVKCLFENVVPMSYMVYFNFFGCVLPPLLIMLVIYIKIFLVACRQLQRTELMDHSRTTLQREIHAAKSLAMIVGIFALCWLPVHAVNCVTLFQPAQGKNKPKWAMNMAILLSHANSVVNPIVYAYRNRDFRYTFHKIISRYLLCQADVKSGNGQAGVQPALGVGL
Chain of human A2a adenosine receptor (P29274 whole entry): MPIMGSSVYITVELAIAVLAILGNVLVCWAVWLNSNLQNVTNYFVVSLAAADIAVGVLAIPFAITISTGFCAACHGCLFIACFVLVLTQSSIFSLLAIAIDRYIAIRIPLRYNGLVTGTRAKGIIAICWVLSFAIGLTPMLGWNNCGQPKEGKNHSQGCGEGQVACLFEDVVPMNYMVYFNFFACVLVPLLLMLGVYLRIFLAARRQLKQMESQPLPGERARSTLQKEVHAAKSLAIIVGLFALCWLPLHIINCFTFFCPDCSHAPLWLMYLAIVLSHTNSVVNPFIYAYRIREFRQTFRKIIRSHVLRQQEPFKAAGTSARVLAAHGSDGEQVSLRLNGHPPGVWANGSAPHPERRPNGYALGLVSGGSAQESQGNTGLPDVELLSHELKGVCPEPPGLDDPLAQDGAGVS

SMILES	IC50 [1] [nM]	IC50 [2] [nM]
Cc1c(-c2ncco2)nc(N)n2nc(CCN3Cc4nnn(C(C)C)c4C(C)C3)nc12 (single isomer, unassigned) [Example 17.8-1, (R or S)-2-(2-(1-isopropyl-7-methyl-1,4,6,7-tetrahydro-5H-[1,2,3]triazolo[4,5-c]pyridin-5-yl)ethyl)-8-methyl-7-(oxazol-2-yl)-[1,2,4]triazolo[1,5-c]pyrimidin-5-amine]	1680	0.7
Cc1c(-c2ncco2)nc(N)n2nc(CCN3Cc4nnn(C(C)C)c4C(C)C3)nc12 (single isomer, unassigned) [Example 17.8-2, (R or S)-2-(2-(1-isopropyl-7-methyl-1,4,6,7-tetrahydro-5H-[1,2,3]triazolo[4,5-c]pyridin-5-yl)ethyl)-8-methyl-7-(oxazol-2-yl)-[1,2,4]triazolo[1,5-c]pyrimidin-5-amine]	14	2.3
Cc1c(-c2ncco2)nc(N)n2nc(CCN3CCn4c(cnc4C(C)C)C3)nc12 [Example 1.10]	16.2	2.1
Cc1c(-c2ncco2)nc(N)n2nc(CCN3CCn4c(cnc4C4CCC4)C3)nc12 [Example 1.11]	56.3	3.6
Cc1c(-c2ncco2)nc(N)n2nc(CCN3CCn4c(cnc4C4CC4)C3)nc12 [Example 1.12]	218	4.8
Cc1c(-c2ncco2)nc(N)n2nc(CCN3CCc4c(cnn4C4CCC4)C3)nc12 [Example 1.13]	144	1
Cc1c(-c2ncco2)nc(N)n2nc(CCN3CCc4nn(C5CCC5)cc4C3)nc12 [Example 1.14]	399	6.7
Cc1c(-c2ncco2)nc(N)n2nc(CCN3CCc4c(nnn4C(C)C)C3)nc12 [Example 1.15]	402	0.1
Cc1c(-c2ncco2)nc(N)n2nc(CCN3CCc4c(nnn4C4CC4)C3)nc12 [Example 1.16]	111	0.3
Cc1c(-c2ncco2)nc(N)n2nc(CCN3CCc4c(nnn4CC(F)(F)F)C3)nc12 [Example 1.17]	35.2	1.3
Cc1c(-c2ncco2)nc(N)n2nc(CCN3CCc4c(nnn4CC(C)(C)O)C3)nc12 [Example 1.18]	694	18.1
CC(C)c1ncc2n1CCN(CCc1nc3cc(-c4ncco4)nc(N)n3n1)C2 [Example 1.19]	905	127
Cc1c(-c2cccc(F)c2)nc(N)c2nc(CCN3CCn4c(cnc4C(C)C)C3)nn12 [Example 2.8]	48.1	160
COc1c(F)cc(F)cc1-c1cc2nc(CCN3CCn4c(cnc4C(C)C)C3)nn2c(N)n1 [Example 2.9]	248	636
CC(C)c1ncc2n1CCN(CCc1nc3cc(-c4cc(F)ccc4O)nc(N)n3n1)C2 [Example 2.10]	400	1000
CC(C)c1ncc2n1CCN(CCc1nc3cc(-c4cc(F)ccc4F)nc(N)n3n1)C2 [Example 2.11]	178	246
CC(C)c1ncc2n1CCN(CCc1nc3cc(-c4cc(F)ccc4Cl)nc(N)n3n1)C2 [Example 2.12]	215	440
CC(C)c1ncc2n1CCN(CCc1nc3cc(-c4cccc(F)c4)nc(N)n3n1)C2 [Example 2.13]	95.5	35.4
CC(C)c1ncc2n1CCN(CCc1nc3cc(-c4cc(F)cc(F)c4)nc(N)n3n1)C2 [Example 2.14]	223	362
Cc1c(-c2cccc(F)c2)nc(N)n2nc(CCN3CCn4c(cnc4C(C)C)C3)nc12 [Example 2.15]	36.8	16.4
Cc1c(-c2cccc(F)c2)nc(N)n2nc(CCN3CCc4c(nnn4C(C)C)C3)nc12 [Example 2.16]	73.4	2.3
CC(C)n1nnc2c1CCN(CCc1nc3cc(-c4cccc(C#N)c4F)nc(N)n3n1)C2 [Example 2.24]	73.6	0.9
Cc1c(-c2cncc(C(F)(F)F)c2)nc(N)c2nc(Cc3ccccc3)nn12 [Example 3.22]	8700	836
Cc1c(-c2cccc(Cl)c2)nc(N)c2nc(Cc3ccccc3)nn12 [Example 3.23]	13.6	2.7
Cc1c(-c2cc(Cl)ccc2F)nc(N)c2nc(Cc3ccccc3)nn12 [Example 3.24]	2.4	0.7

SMILES	IC50 [1] [nM]	IC50 [2] [nM]
Cc1c(-c2cc(F)cc(F)c2)nc(N)c2nc(Cc3ccccc3)nn12 [Example 3.25]	19.8	1.6
Cc1c(-c2cc(F)cc(F)c2F)nc(N)c2nc(Cc3ccccc3)nn12 [Example 3.26]	2.7	2.5
COc1ncc(-c2nc(N)c3nc(Cc4ccccc4)nn3c2C)cc1Cl [Example 3.27]	145	11
Cc1c(-c2cc(F)cc(Cl)c2)nc(N)c2nc(Cc3ccccc3)nn12 [Example 3.28]	34.4	2.9
Cc1c(-c2cccc(F)c2F)nc(N)c2nc(Cc3ccccc3)nn12 [Example 3.29]	39.4	4
Cc1c(-c2cccc(Cl)c2F)nc(N)c2nc(Cc3ccccc3)nn12 [Example 3.30]	46.2	7.6
COc1cc(F)cc(-c2nc(N)c3nc(Cc4ccccc4)nn3c2C)c1 [Example 3.31]	134	6.2
Cc1c(-c2cncc(Cl)c2)nc(N)c2nc(Cc3ccccc3)nn12 [Example 3.32]	147	13.1
Cc1c(-c2ccc(F)c(Cl)c2)nc(N)c2nc(Cc3ccccc3)nn12 [Example 3.33]	117	27.2
Cc1c(-c2cc(F)c(F)cc2F)nc(N)c2nc(Cc3ccccc3)nn12 [Example 3.34]	95.8	32.2
Cc1ccc(F)cc1-c1nc(N)c2nc(Cc3ccccc3)nn2c1C [Example 3.35]	700	65.6
Cc1c(-c2cc(F)c(F)c(F)c2)nc(N)c2nc(Cc3ccccc3)nn12 [Example 3.36]	154	76.5
Cc1ccc(-c2nc(N)c3nc(Cc4ccccc4)nn3c2C)cc1F [Example 3.37]	3710	1000
Cc1c(-c2cc(F)ccc2Cl)nc(N)c2nc(Cc3ccccc3)nn12 [Example 3.38]	85.7	97.6
Cc1c(F)cccc1-c1nc(N)c2nc(Cc3ccccc3)nn2c1C [Example 3.39]	1020	98.5
Cc1c(-c2ccc(F)c(F)c2F)nc(N)c2nc(Cc3ccccc3)nn12 [Example 3.40]	315	280
Cc1c(-c2cccc(F)c2Cl)nc(N)c2nc(Cc3ccccc3)nn12 [Example 3.41]	747	289
Cc1c(-c2ccc(C#N)c(F)c2)nc(N)c2nc(Cc3ccccc3)nn12 [Example 3.42]	1730	499
COc1ccc(F)cc1-c1nc(N)c2nc(Cc3ccccc3)nn2c1C [Example 3.43]	2520	611
Cc1c(-c2ccn(C)n2)nc(N)c2nc(Cc3ccccc3)nn12 [Example 3.46]	82.6	4.4
Cc1cccnc1Cc1nc2c(N)nc(-c3cc(F)ccc3F)c(C)n2n1 [Example 4.3, 6-(2,5-difluorophenyl)-5-methyl-2-((3-methylpyridin-2-yl)methyl)-[1,2,4]triazolo[1,5-a]pyrazin-8-amine]	47.3	9.9
Cc1c(-c2cc(F)ccc2F)nc(N)c2nc(Cc3ccc(F)cn3)nn12 [Example 4.4]	26	22.8
Cc1c(-c2cc(F)ccc2F)nc(N)c2nc(Cc3cccc4c3ncn4CC(F)F)nn12 [Example 4.5]	31.8	23.8
Cc1c(-c2ncco2)nc(N)n2nc(Cc3ccc4c(c3)ncn4CC(F)F)nc12 [Example 4.7]	7.6	35.3
Cc1c(-c2ncco2)nc(N)n2nc(CCc3ccc4c(c3)nnn4C3CC(F)(F)C3)nc12 [Example 22.3, 2-(2-(1-(3,3-Difluorocyclobutyl)-1H-benzo[d][1,2,3]triazol-5-yl)ethyl)-8-methyl-7-(oxazol-2-yl)-[1,2,4]triazolo[1,5-c]pyrimidin-5-amine]	–	21.5
